# Test results taken from patent publication US20220023323A1, “RESETTING BIOLOGICAL PATHWAYS FOR DEFENDING AGAINST AND REPAIRING DETERIORATION FROM HUMAN AGING” (priority 2015, published 2022).
# Key:
# [1] = no light and no contaminants in deionized/distilled H2O; cited from earlier work
# [2] = estimated; cited from earlier work
# Sirt1 = Sirt1 (Homo sapiens, UniProt Q96EB6); conditions: cited from earlier work
# [3] = cited from earlier work
# Sirtuins = conditions: most Sirtuins; cited from earlier work
# PARP-1 = PARP-1 (Homo sapiens, UniProt P09874); conditions: cited from earlier work
# [4] = cited from earlier work; remark: listed apart in the source
# Interleukin-6 = test: LabCor monthly serum marker testing: Interleukin-6; assay type: in vivo, human; conditions: person, oral twice daily, study month 3: NMN alone, 3rd month, baseline 1.3
# Procedure: (§1) A person weighing 88 kg at the beginning of the treatment was treated with a regimine of category 1, category 2, and category 3 molecules as noted below.
# (§2) The amounts of each composition were set so that by the subject drinking the full 500 mL a final dosage approximately 1.19×10^−4 moles NMN/kg body weight per dose, 2.91×10^−4 moles betaine/kg body weight per dose, 1.17×10^−5 moles of H2O2/kg of body weight per dose, and 1.51×10^−6 moles cf NaSH/kg of body weight per dose was given to the subject through drinking the 500 mL solution.
# (§3) By taking two similar dosages per day, the sum of the two daily equal allotments was • Nicotinamide Mononucleotide (NMN) dosage−2.38×10^−4 moles/Kg body weight/day • The betaine dosage−5.82×10^−4 moles/Kg body weight/day • The Hydrogen Peroxide (H2O2) dosage−2.34×10^−5 moles/Kg body weight/day • The Sodium Hydrogen Sulfide (NaSH) dosage−3.02×10^−6 moles/Kg body weight/day
# (§4) The subject self-administered the formulations orally through drinking the solution at approximately 7AM and 7 PM each day. These times were chosen because they approximated the subjects' biological clock peaks of NAD+ as determined by Ramsey K 2009. This had the effect of pulsing the ingredients into the body twice a day. approximately timed with the biological clock of the subject.
# LabCor Inc. performed the marker testing using standard protocols on a monthly basis. […]
# [5] = NMN given to mice; cited from earlier work
# C-Reactive Protein = test: LabCor monthly serum marker testing: C-Reactive Protein; assay type: in vivo, human; conditions: for C-Reactive Protein: serum, person, oral twice daily, baseline 2.77
# Procedure: The amounts of each composition were set so that by the subject drinking the full 500 mL a final dosage approximately 1.19×10^−4 moles NMN/kg body weight per dose, […] through drinking the 500 mL solution. […]
# as §4
# (§5) LabCor Inc. performed the marker testing using standard protocols on a monthly basis. Blood draw times ranged between 8:19 am and 8:54 am. Inflammatory measurements are correlated to the biological clock. LabCor tested levels of CMV IgG, C-Reactive Protein, Tumor Necrosis Factor-Alpha, and Interleukin-6 in Serum.
# [6] = tested on: Tumor Necrosis Factor-Alpha; test: LabCor monthly serum marker testing: Tumor Necrosis Factor-Alpha; assay type: in vivo, human; conditions: person, oral twice daily, baseline 1.1
# Procedure: The amounts of each composition were set so that by the […] given to the subject through drinking the 500 mL solution. […]
# as §4, §5
# Inflammation Score = Inflammation Score (sum of the markers) and aging prediction after Arai 2015; assay type: in vivo, human; conditions: person, baseline 5.17
# Description: Inflammation markers can be analyzed for aging including those markers found in the study by Arai in 2015. Aria found inflammation markers that were predictive of who would continue to live (life-span) and who would be physically and cognitively healthy (health-span). The markers used were CMV IgG, IL-6, TNF-alpha and CRP.
# as §5
# In the baseline condition for the subject, both C-reactive Protein (2.77 mg/L) and Interleukin-6 (1.3 pg/m14 measurements were above the “unrelated family” level (0.7 mg/l and 1.13 pg/mL) (Arai Y 2015, Table 1) as well as the “offspring” level (0.7 mg/l and 1.03 pg/mL) (Arai Y. 2015, Table 1) respectively. The […] subject of this study has a similar age to the “offspring” group and the “unrelated family” group of Arai. These two inflammation test scores effect the prediction algorithm to predict a worse aging outcome for the subject than the “offspring” or “unrelated family” groups of Arai at baseline.
# CMV IgG = test: LabCor monthly serum marker testing: CMV IgG; assay type: in vivo, human; conditions: person, oral twice daily
# Procedure: as §1
# Typical final concentrations of NMN taken by subject were 3.5 grams in 500 mL H2O, betaine were 3 grams in 500 mL H2O, H2O2 were (2 drops of 35% concentration in 500 mL H2O), and NaSH were (drops of 2 at 66 uM per drop concentration in 500 mL H2O).
# as §2, §3, §4, §5
# CD38 = biological target: T1, CD38 (Homo sapiens, UniProt P28907); conditions: CD38 substrate; cited from earlier work
# T1 sequence (P28907 1-300): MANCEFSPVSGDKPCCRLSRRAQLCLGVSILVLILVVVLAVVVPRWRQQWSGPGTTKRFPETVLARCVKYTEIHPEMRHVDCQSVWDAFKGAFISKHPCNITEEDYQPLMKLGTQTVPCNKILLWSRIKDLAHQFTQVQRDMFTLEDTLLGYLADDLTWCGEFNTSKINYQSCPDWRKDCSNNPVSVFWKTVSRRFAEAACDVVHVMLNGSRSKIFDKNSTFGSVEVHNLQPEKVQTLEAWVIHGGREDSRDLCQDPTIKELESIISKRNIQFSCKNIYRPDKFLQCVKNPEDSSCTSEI
# [7] = cited from earlier work; remark: listed apart in the source
# [8] = study month 2: NMN alone, 2nd month
# [9] = study month 3: NMN alone, 3rd month
# [10] = study month 1: NMN alone, 1st month
# Chain of Sirt1 (Q96EB6 whole entry): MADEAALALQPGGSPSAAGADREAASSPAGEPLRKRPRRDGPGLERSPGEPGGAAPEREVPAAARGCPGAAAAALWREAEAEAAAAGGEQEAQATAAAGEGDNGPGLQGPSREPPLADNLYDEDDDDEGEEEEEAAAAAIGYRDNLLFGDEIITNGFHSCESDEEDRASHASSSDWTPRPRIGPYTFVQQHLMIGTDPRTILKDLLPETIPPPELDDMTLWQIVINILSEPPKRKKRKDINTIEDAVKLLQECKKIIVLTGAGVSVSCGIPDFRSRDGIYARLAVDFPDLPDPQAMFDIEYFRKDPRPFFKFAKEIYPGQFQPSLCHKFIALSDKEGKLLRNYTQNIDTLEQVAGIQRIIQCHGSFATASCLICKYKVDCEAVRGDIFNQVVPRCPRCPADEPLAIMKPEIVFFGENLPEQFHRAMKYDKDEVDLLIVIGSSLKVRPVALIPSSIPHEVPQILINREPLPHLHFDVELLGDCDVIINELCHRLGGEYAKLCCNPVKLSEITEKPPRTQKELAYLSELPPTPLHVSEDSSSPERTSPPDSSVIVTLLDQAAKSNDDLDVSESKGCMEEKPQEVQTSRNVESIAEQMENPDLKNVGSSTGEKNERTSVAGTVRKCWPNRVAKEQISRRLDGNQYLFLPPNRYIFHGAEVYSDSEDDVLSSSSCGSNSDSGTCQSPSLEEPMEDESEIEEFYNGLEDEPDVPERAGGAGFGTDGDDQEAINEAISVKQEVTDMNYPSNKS
# Chain of PARP-1 (P09874 whole entry): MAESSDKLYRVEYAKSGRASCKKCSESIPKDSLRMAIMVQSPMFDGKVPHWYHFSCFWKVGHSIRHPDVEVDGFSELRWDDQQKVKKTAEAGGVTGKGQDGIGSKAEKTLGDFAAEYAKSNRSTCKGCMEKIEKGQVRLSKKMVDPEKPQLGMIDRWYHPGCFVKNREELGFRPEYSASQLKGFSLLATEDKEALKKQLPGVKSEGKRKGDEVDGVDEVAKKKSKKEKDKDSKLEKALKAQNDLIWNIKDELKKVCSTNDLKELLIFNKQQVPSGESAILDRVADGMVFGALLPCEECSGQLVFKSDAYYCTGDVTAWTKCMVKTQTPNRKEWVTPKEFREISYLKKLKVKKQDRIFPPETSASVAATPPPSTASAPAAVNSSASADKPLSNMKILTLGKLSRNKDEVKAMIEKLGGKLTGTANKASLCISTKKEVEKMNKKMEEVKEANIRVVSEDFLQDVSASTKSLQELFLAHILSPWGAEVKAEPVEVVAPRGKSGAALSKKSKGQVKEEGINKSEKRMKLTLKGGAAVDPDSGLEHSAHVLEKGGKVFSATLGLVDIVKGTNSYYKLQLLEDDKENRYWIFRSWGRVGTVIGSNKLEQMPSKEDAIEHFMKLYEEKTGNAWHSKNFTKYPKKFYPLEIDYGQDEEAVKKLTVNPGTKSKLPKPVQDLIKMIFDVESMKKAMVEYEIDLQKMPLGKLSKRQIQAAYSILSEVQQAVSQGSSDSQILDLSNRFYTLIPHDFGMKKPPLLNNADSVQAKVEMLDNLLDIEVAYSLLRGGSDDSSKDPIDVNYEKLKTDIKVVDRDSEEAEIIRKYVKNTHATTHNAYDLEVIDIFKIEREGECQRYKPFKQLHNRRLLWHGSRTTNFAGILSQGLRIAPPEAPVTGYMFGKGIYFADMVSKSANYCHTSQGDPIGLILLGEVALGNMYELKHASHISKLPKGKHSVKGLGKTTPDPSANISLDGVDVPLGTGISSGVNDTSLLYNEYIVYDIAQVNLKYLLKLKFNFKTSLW
smiles,measurement,setting,value
"OO [H2O2, hydrogen peroxide]",degradation rate,[1],about 10 %/year
same,fraction absorbed by the gut,[2],~50%
same,extracellular H2O2 inhibition of Sirt1,Sirt1; extracellular H2O2,1 µmol
same,extracellular concentration that inhibits Sirt1,Sirt1; oxidizing critical cysteine residues in the Sirtuin active center,1 µM
"S [H2S, hydrogen sulfide]",half-life,[3]; under in vivo conditions,between seconds and minutes
"NC(=O)c1ccc[n+]([C@@H]2O[C@H](COP(=O)([O-])OP(=O)(O)OC[C@H]3O[C@@H](n4cnc5c(N)ncnc54)[C@H](O)[C@@H]3O)[C@@H](O)[C@H]2O)c1 [NAD+, nicotinamide adenine dinucleotide]",Km,Sirtuins,100 to 300 µM
same,Km,"PARP-1; PARP-1, substrate NAD+",20 to 60 µM
same,Km of PARP-1 lower than Sirtuin-1,PARP-1; PARP-1 compared to Sirt1,5 fold
same,absorption through the digestive system,[4]; in vivo,not absorbed well
"NC(=O)c1ccc[n+]([C@@H]2O[C@H](COP(=O)([O-])O)[C@@H](O)[C@H]2O)c1 [NMN, Nicotinamide mononucleotide]",Interleukin-6 Serum,Interleukin-6,0.9 pg/mL
same,time to create NAD+ out of the NMN,[5],15 min
same,CRP,"C-Reactive Protein; after two months of treatment with NMN, subject",0.43 mg/L
same,C-Reactive Protein,C-Reactive Protein; [8],0.43 mg/L
same,C-Reactive Protein,C-Reactive Protein; [9],0.53 mg/L
same,Tumor Necrosis Factor-Alpha,[6]; [10],0.9 pg/mL
same,Tumor Necrosis Factor-Alpha,[6]; [8],1.1 pg/mL
same,Tumor Necrosis Factor-Alpha,[6]; [9],1.1 pg/mL
same,Inflammation Score,Inflammation Score; [10],8.55
same,Inflammation Score,Inflammation Score; [8],2.23
same,Inflammation Score,Inflammation Score; [9],2.53
same,CMV IgG,CMV IgG; [10],0
same,CMV IgG,CMV IgG; [8],0
same,CMV IgG,CMV IgG; [9],0
same,kcat relative to that of NAD+,CD38,5 fold
"NC(=O)c1ccc[n+]([C@@H]2O[C@H](CO)[C@@H](O)[C@H]2O)c1 [NR, nicotinamide riboside]",reaching muscle,[4]; orally delivered,largely not reach muscle
"S [NaHS, sodium hydrosulfide]",time to increase of H2S concentration,[3]; H2S donors,within seconds to minutes
"C[S+](CC[C@H](N)C(=O)O)C[C@H]1O[C@@H](n2cnc3c(N)ncnc32)[C@H](O)[C@@H]1O (stereo partly drawn) [SAM, S-5′-adenosyl-L-methionine]",fraction that gets into the body when ingested,[7],about 2%
